In ChEMBL document CHEMBL1909046, “DrugMatrix in vitro pharmacology data”:

Assays:
[1] = target: T1, Vasoactive intestinal polypeptide receptor 1 (Homo sapiens, UniProt P32241); assay type: cell membranes, Membrane; conditions: ht-29; note: in other assays of this panel Not Active means under 50% inhibition at 10 µM
T1 sequence (P32241 whole entry): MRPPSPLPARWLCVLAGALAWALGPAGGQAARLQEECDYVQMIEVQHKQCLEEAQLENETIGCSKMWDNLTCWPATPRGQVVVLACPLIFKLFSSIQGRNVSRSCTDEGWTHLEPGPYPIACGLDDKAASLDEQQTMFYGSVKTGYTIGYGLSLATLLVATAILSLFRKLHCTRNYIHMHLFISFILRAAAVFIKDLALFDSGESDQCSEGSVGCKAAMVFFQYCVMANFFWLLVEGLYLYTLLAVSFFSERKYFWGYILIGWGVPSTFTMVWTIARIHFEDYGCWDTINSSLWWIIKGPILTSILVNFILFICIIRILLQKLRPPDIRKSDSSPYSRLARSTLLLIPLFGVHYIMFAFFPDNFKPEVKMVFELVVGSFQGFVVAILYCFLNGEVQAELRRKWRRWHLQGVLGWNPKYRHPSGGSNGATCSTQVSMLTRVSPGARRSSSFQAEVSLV

[2] = DRUGMATRIX: Interleukin IL-1 radioligand binding (ligand: [125I] interleukin 1beta); assay type: cell membranes, Membrane; conditions: nih3t3; Not Active = under 50% inhibition at 10 µM
[3] = target: T2, Muscarinic acetylcholine receptor M2 (Homo sapiens, UniProt P08172); assay type: cell membranes, CHO-K1, Membrane; note: in other assays of this panel Not Active means under 50% inhibition at 10 µM
T2 sequence (P08172 whole entry): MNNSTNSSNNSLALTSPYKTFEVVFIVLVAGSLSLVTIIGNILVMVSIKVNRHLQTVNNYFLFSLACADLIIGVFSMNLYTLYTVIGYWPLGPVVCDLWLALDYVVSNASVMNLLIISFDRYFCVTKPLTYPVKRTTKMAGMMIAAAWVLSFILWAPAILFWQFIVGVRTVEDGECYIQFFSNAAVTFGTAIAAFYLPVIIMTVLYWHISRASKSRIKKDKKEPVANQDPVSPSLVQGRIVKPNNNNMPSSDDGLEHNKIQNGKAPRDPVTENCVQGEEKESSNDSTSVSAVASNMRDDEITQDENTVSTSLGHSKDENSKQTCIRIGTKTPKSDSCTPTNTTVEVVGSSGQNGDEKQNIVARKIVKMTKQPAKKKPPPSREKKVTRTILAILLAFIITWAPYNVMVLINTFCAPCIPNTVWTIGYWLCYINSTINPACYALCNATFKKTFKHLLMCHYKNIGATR

[4] = target: T3, Amine oxidase [flavin-containing] A (Homo sapiens, UniProt P21397); experiment: DRUGMATRIX: Monoamine Oxidase MAO-A enzyme inhibition (substrate: Kynuramine); design: species or system BTI-TN-5B1-4; conditions: bti-tn-5b1-4; Not Active = under 50% inhibition at 10 µM
T3 sequence (P21397 whole entry): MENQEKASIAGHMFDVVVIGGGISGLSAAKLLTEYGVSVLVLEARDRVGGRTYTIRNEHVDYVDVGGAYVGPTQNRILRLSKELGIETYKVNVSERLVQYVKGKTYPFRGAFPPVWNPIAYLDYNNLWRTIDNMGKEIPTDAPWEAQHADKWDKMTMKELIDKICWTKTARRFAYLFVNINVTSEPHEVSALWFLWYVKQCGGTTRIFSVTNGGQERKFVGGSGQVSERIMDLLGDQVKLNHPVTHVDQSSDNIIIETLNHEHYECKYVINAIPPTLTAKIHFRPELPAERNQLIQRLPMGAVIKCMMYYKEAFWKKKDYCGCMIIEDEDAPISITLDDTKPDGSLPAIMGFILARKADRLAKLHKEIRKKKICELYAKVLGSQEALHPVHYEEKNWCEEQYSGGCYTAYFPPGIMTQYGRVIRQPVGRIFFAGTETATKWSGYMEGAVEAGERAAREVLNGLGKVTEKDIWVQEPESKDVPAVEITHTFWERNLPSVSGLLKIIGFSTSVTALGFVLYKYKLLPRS

Carbonic anhydrase 2 = Carbonic anhydrase 2 (Homo sapiens, UniProt P00918); experiment: DRUGMATRIX: Carbonic Anhydrase II enzyme inhibition (substrate: 4-Nitrophenyl acetate (4-NPA)); assay type: tissue-based, Erythrocyte; conditions: erythrocyte; Not Active = under 50% inhibition at 10 µM
Cannabinoid receptor 1 = Cannabinoid receptor 1 (Homo sapiens, UniProt P21554); assay type: cell membranes, Membrane; conditions: chem-1; note: in other assays of this panel Not Active means under 50% inhibition at 10 µM
Chain of Cannabinoid receptor 1 (P21554 whole entry): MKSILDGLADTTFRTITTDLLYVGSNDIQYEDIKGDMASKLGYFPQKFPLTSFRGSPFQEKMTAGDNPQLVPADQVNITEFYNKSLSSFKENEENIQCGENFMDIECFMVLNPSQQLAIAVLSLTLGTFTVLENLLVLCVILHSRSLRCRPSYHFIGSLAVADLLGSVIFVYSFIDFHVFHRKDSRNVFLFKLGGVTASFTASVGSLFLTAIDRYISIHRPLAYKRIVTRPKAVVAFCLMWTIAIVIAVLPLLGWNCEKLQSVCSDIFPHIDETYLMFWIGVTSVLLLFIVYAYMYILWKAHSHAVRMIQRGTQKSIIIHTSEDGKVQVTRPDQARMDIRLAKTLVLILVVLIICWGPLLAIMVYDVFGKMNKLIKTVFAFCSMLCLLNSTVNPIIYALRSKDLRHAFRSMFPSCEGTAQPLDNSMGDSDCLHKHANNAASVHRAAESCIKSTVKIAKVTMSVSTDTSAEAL

[5] = target: Beta-2 adrenergic receptor (Homo sapiens, UniProt P07550); experiment: DRUGMATRIX: Adrenergic beta2 radioligand binding (ligand: [3H] CGP-12177); assay type: cell membranes, CHO, Membrane; conditions: cho; Not Active = under 50% inhibition at 10 µM
Chain of Beta-2 adrenergic receptor (P07550 whole entry): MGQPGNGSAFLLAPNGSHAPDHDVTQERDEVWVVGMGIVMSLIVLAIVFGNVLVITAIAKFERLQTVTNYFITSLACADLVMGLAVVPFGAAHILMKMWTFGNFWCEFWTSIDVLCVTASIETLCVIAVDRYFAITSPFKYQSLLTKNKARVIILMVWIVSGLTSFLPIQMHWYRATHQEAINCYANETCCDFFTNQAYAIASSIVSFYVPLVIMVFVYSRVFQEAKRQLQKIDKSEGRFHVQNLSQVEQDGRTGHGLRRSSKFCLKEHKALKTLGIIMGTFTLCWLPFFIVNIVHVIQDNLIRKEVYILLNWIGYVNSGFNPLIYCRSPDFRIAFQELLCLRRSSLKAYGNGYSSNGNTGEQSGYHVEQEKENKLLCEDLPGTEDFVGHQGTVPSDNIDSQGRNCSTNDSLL

Row | Structure (SMILES) | IC50 [1] | IC50 [2] | Ki [2] | IC50 ([3]; cho-k1) | IC50 [4] | IC50 (Carbonic anhydrase 2) | IC50 (Cannabinoid receptor 1) | IC50 [5] | IC50 ([3]; read-out: IC50) [µM] | Ki ([3]; read-out: Ki) [µM]
1 | Nn1nnc2ccccc21 | Not Active | Not Active | Not Active | Not Active | Not Active | Not Active | Not Active | Not Active | – | –
2 | CC[C@]1(O)CC[C@H]2[C@@H]3CCC4=CCCC[C@@H]4[C@H]3CC[C@@]21C | Not Active | Not Active | Not Active | – | Not Active | Not Active | Not Active | Not Active | 0.292 | 0.104
3 | N[C@@H](Cc1ccc(F)cc1)C(=O)O | Not Active | Not Active | Not Active | Not Active | Not Active | Not Active | Not Active | Not Active | – | –
4 | CCOC(=O)[C@H](CCc1ccccc1)N[C@@H](C)C(=O)N1Cc2ccccc2C[C@H]1C(=O)O | Not Active | Not Active | Not Active | Not Active | Not Active | Not Active | Not Active | Not Active | – | –
5 | O=C(c1ccccc1Cl)N1CCC(Cc2ccccc2)CC1 | Not Active | Not Active | Not Active | Not Active | Not Active | Not Active | Not Active | Not Active | – | –
6 | CCOC(=O)[C@H](CCc1ccccc1)N[C@@H](C)C(=O)N1CCC[C@H]1C(=O)O | Not Active | Not Active | Not Active | Not Active | Not Active | Not Active | Not Active | Not Active | – | –
7 | Clc1cc2c(cc1Cl)Oc1cc(Cl)c(Cl)cc1O2 [2,3,7,8-TETRACHLORODIBENZO-P-DIOXIN] | Not Active | Not Active | Not Active | Not Active | Not Active | Not Active | Not Active | Not Active | – | –
8 | C=C1/C(=C\C=C2/CCC[C@]3(C)[C@@H]([C@H](C)CCCC(C)C)CC[C@@H]23)C[C@@H](O)C[C@@H]1O [ALFACALCIDOL] | Not Active | Not Active | Not Active | Not Active | Not Active | Not Active | Not Active | Not Active | – | –
9 | CCCCCC[C@H]1C(=O)O[C@H](C)[C@H](NC(=O)c2cccc(NC=O)c2O)C(=O)O[C@@H](C)[C@@H]1OC(=O)CC(C)C [ANTIMYCIN A] | Not Active | Not Active | Not Active | Not Active | Not Active | Not Active | Not Active | Not Active | – | –
10 | C[C@@H]1CC[C@H]2[C@@H](C)C(=O)O[C@@H]3O[C@@]4(C)CC[C@@H]1[C@]32OO4 [ARTEMISININ] | Not Active | Not Active | Not Active | Not Active | Not Active | Not Active | Not Active | Not Active | – | –
11 | CO[C@H]1[C@@H](O)[C@H](N)[C@@H](O[C@H]2O[C@H]([C@H](C)N)CC[C@H]2N)[C@H](O)[C@@H]1N(C)C(=O)CN [ASTROMICIN] | Not Active | Not Active | Not Active | Not Active | Not Active | Not Active | Not Active | Not Active | – | –
12 | [N-]=[N+]=CC(=O)OC[C@H](N)C(=O)O [AZASERINE] | Not Active | Not Active | Not Active | Not Active | Not Active | Not Active | Not Active | Not Active | – | –
13 | CC[C@H]1OC(=O)[C@H](C)[C@@H](O[C@H]2C[C@@](C)(OC)[C@@H](O)[C@H](C)O2)[C@H](C)[C@@H](O[C@@H]2O[C@H](C)C[C@H](N(C)C)[C@H]2O)[C@](C)(O)C[C@@H](C)CN(C)[C@H](C)[C@@H](O)[C@]1(C)O [AZITHROMYCIN] | Not Active | Not Active | Not Active | Not Active | Not Active | Not Active | Not Active | Not Active | – | –
14 | CC(C)(C)c1ccc(S(=O)(=O)/C=C/C#N)cc1 [BAY-11-7085] | Not Active | Not Active | Not Active | Not Active | Not Active | Not Active | Not Active | Not Active | – | –
15 | CCc1oc2ccccc2c1C(=O)c1cc(Br)c(O)c(Br)c1 [BENZBROMARONE] | Not Active | Not Active | Not Active | Not Active | Not Active | Not Active | Not Active | Not Active | – | –
16 | O=c1cc(-c2ccccc2)oc2ccc3ccccc3c12 [BETA-NAPHTHOFLAVONE] | Not Active | Not Active | Not Active | Not Active | Not Active | Not Active | Not Active | Not Active | – | –
17 | CC(C)C[C@H]1C(=O)N2CCC[C@H]2[C@]2(O)O[C@](NC(=O)[C@@H]3C=C4c5cccc6[nH]c(Br)c(c56)C[C@H]4N(C)C3)(C(C)C)C(=O)N12 [BROMOCRIPTINE] | Not Active | Not Active | Not Active | Not Active | Not Active | Not Active | Not Active | Not Active | – | –
18 | CS(=O)(=O)OCCCCOS(C)(=O)=O [BUSULFAN] | Not Active | Not Active | Not Active | Not Active | Not Active | Not Active | Not Active | Not Active | – | –
19 | O=C(/C=C/c1ccc(O)c(O)c1)OCCc1ccccc1 [CAFFEIC ACID PHENETHYL ESTER] | Not Active | Not Active | Not Active | Not Active | Not Active | Not Active | Not Active | Not Active | – | –
20 | COc1cc(CNC(=O)CCCC/C=C/C(C)C)ccc1O [CAPSAICIN] | Not Active | Not Active | Not Active | Not Active | Not Active | Not Active | Not Active | Not Active | – | –
21 | NC(=O)N1c2ccccc2C=Cc2ccccc21 [CARBAMAZEPINE] | Not Active | Not Active | Not Active | Not Active | Not Active | Not Active | Not Active | Not Active | – | –
22 | CCOC(=O)n1ccn(C)c1=S [CARBIMAZOLE] | Not Active | Not Active | Not Active | Not Active | Not Active | Not Active | Not Active | Not Active | – | –
23 | Oc1ccccc1O [CATECHOL] | Not Active | Not Active | Not Active | Not Active | Not Active | Not Active | Not Active | Not Active | – | –
24 | COc1ccc2cc(CCC(C)=O)ccc2c1 [NABUMETONE] | Not Active | Not Active | Not Active | Not Active | – | Not Active | Not Active | Not Active | – | –
